From patent US10729768B2, “Combination of anti-CD20 antibody and PI3 kinase selective inhibitor” (TG Therapeutics, Inc., priority 2012, dated 2020)

What was measured:
Assay type in all cases: cell-based
CD19-positive cells = experiment: B cell depletion from human whole blood (HWB), flow cytometry, CD19; settings: 1 μM, 24 hrs
Procedure: (§1) A flow cytometry assay was used to compare the ability of S-isomer of compound of formula A, Ublituximab (Ubx), and combinations thereof to deplete B cells from human whole blood (HWB). In this assay, 50 μl of HWB sample was treated with either S-isomer of a compound of formula A (1000 nM), UBX (100 μg/ml to 0.1 μg/ml), or UBX in combination with S-isomer of a compound of formula A at 1000 nM and incubated for 24 hrs at 37° C. and 5% CO2. 20 μl of treated sample was taken in a 1.5 ml centrifuge tube and labeled with CD45 FITC and CD19 PE or CD20 FITC antibody and incubated in the dark for 1 hour at RT. 1 ml of red blood cell (RBC) lysing solution was added, and tubes were centrifuged at 3000 rpm for 10 minutes. […] The tubes were vortexed, and 5000 events were acquired on a Guava® easyCyte™ flow cytometer and analyzed with Incyte Software.
(§2) Gated population of CD45-positive cells were further analyzed for CD19. The number of cells that were positive for CD45 and CD19 was calculated, and the data was expressed as the percentage of CD19 positive cells in the population. CD20-positive populations were gated with fluorescence positive minus unlabeled cells, and the data was expressed as the percentage of CD20-positive cells in the population. The loss of CD19/CD20 population from control was calculated and expressed as % depletion with respect to control.

CD20-positive cells = experiment: B cell depletion from human whole blood (HWB), flow cytometry, CD20; settings: 1 μM, 24 hrs
Procedure: as §1, §2

DB Cells = experiment: cell cycle assay, flow cytometry; settings: DB cells
Procedure: (§3) A cell cycle assay reagent (Millipore) was used to determine the effect of S-isomer of a compound of formula A, UBX, and combinations thereof on the cell cycle in cancerous cells. […] The cells were transferred to microfuge tubes to receive 50 μl of cell cycle reagent and incubated for 30 minutes at RT away from light. Cells were then diluted with 300-400 μl PBS, and a minimum of 10,000 events were acquired on a Guava® easyCyte™ flow cytometer. The data was analyzed with Express Pro software and the percentage of the cell population in different cell cycle stages with respect to control was presented in histograms.

Daudi cells = experiment: cell cycle assay, flow cytometry
Procedure: as §3

U266B1 cells = experiment: cell cycle assay, flow cytometry
Procedure: as §3

Raji Cells = experiment: cell cycle assay, flow cytometry
Procedure: as §3

CC(C)Oc1ccc(-c2nn([C@@H](C)c3oc4ccc(F)cc4c(=O)c3-c3cccc(F)c3)c3ncnc(N)c23)cc1F [S-isomer, (S)-2-(1-(4-amino-3-(3-fluoro-4-isopropoxyphenyl)-1H-pyrazolo[3,4-d]pyrimidin-1-yl)ethyl)-6-fluoro-3-(3-fluorophenyl)-4H-chromen-4-one]
reduction in CD19-positive HWB B-cells (CD19-positive cells): not observed
reduction in CD20-positive HWB B-cells (CD20-positive cells): not observed
G0/G1, percentage of the cell population (DB Cells; 72 h, 0.1 nM): 54.37
G2/M, percentage of the cell population (DB Cells; 72 h, 0.1 nM): 39.41
S, percentage of the cell population (DB Cells; 72 h, 0.1 nM): 4.84
Sub G0, percentage of the cell population (DB Cells; 72 h, 0.1 nM): 0.84
G0/G1, percentage of the cell population (DB Cells; 72 h, 1 nM): 50.61
G2/M, percentage of the cell population (DB Cells; 72 h, 1 nM): 41.44
S, percentage of the cell population (DB Cells; 72 h, 1 nM): 6.53
Sub G0, percentage of the cell population (DB Cells; 72 h, 1 nM): 0.54
G0/G1, percentage of the cell population (DB Cells; 72 h, 10 nM): 47.22
G2/M, percentage of the cell population (DB Cells; 72 h, 10 nM): 46.85
S, percentage of the cell population (DB Cells; 72 h, 10 nM): 4.98
Sub G0, percentage of the cell population (DB Cells; 72 h, 10 nM): 0.55
G0/G1, percentage of the cell population (DB Cells; 72 h, 100 nM): 41.21
G2/M, percentage of the cell population (DB Cells; 72 h, 100 nM): 50.22
S, percentage of the cell population (DB Cells; 72 h, 100 nM): 6.96
Sub G0, percentage of the cell population (DB Cells; 72 h, 100 nM): 0.43
G0/G1, percentage of the cell population (DB Cells; 72 h, 1000 nM): 0.75
G2/M, percentage of the cell population (DB Cells; 72 h, 1000 nM): 92.79
S, percentage of the cell population (DB Cells; 72 h, 1000 nM): 0.42
Sub G0, percentage of the cell population (DB Cells; 72 h, 1000 nM): 5.36
G0/G1, percentage of the cell population (DB Cells; 72 h, 10,000 nM): 1.40
G2/M, percentage of the cell population (DB Cells; 72 h, 10,000 nM): 94.87
S, percentage of the cell population (DB Cells; 72 h, 10,000 nM): 0.89
Sub G0, percentage of the cell population (DB Cells; 72 h, 10,000 nM): 2.06
G0/G1, percentage of the cell population (Daudi cells; 72 h, 0.1 nM): 49.56
G2/M, percentage of the cell population (Daudi cells; 72 h, 0.1 nM): 33.23
S, percentage of the cell population (Daudi cells; 72 h, 0.1 nM): 14.13
Sub G0, percentage of the cell population (Daudi cells; 72 h, 0.1 nM): 0.34
G0/G1, percentage of the cell population (Daudi cells; 72 h, 1 nM): 48.11
G2/M, percentage of the cell population (Daudi cells; 72 h, 1 nM): 36.75
S, percentage of the cell population (Daudi cells; 72 h, 1 nM): 13.27
Sub G0, percentage of the cell population (Daudi cells; 72 h, 1 nM): 0.74
G0/G1, percentage of the cell population (Daudi cells; 72 h, 10 nM): 46.84
G2/M, percentage of the cell population (Daudi cells; 72 h, 10 nM): 37.79
S, percentage of the cell population (Daudi cells; 72 h, 10 nM): 12.55
Sub G0, percentage of the cell population (Daudi cells; 72 h, 10 nM): 1.68
G0/G1, percentage of the cell population (Daudi cells; 72 h, 100 nM): 47.39
G2/M, percentage of the cell population (Daudi cells; 72 h, 100 nM): 38.05
S, percentage of the cell population (Daudi cells; 72 h, 100 nM): 11.33
Sub G0, percentage of the cell population (Daudi cells; 72 h, 100 nM): 1.30
G0/G1, percentage of the cell population (Daudi cells; 72 h, 1000 nM): 48.27
G2/M, percentage of the cell population (Daudi cells; 72 h, 1000 nM): 40.10
S, percentage of the cell population (Daudi cells; 72 h, 1000 nM): 7.91
Sub G0, percentage of the cell population (Daudi cells; 72 h, 1000 nM): 2.22
G0/G1, percentage of the cell population (Daudi cells; 72 h, 10,000 nM): 2.53
G2/M, percentage of the cell population (Daudi cells; 72 h, 10,000 nM): 65.03
S, percentage of the cell population (Daudi cells; 72 h, 10,000 nM): 21.92
Sub G0, percentage of the cell population (Daudi cells; 72 h, 10,000 nM): 5.01
G0/G1, percentage of the cell population (U266B1 cells; 72 h, 0.1 nM): 59.26
G2/M, percentage of the cell population (U266B1 cells; 72 h, 0.1 nM): 30.71
S, percentage of the cell population (U266B1 cells; 72 h, 0.1 nM): 6.55
Sub G0, percentage of the cell population (U266B1 cells; 72 h, 0.1 nM): 2.75
G0/G1, percentage of the cell population (U266B1 cells; 72 h, 1 nM): 57.73
G2/M, percentage of the cell population (U266B1 cells; 72 h, 1 nM): 36.19
S, percentage of the cell population (U266B1 cells; 72 h, 1 nM): 4.87
Sub G0, percentage of the cell population (U266B1 cells; 72 h, 1 nM): 0.94
G0/G1, percentage of the cell population (U266B1 cells; 72 h, 10 nM): 55.33
G2/M, percentage of the cell population (U266B1 cells; 72 h, 10 nM): 39.28
S, percentage of the cell population (U266B1 cells; 72 h, 10 nM): 5.38
Sub G0, percentage of the cell population (U266B1 cells; 72 h, 10 nM): 0.76
G0/G1, percentage of the cell population (U266B1 cells; 72 h, 100 nM): 48.69
G2/M, percentage of the cell population (U266B1 cells; 72 h, 100 nM): 45.76
S, percentage of the cell population (U266B1 cells; 72 h, 100 nM): 5.49
Sub G0, percentage of the cell population (U266B1 cells; 72 h, 100 nM): 0.75
G0/G1, percentage of the cell population (U266B1 cells; 72 h, 1000 nM): 47.80
G2/M, percentage of the cell population (U266B1 cells; 72 h, 1000 nM): 47.13
S, percentage of the cell population (U266B1 cells; 72 h, 1000 nM): 4.69
Sub G0, percentage of the cell population (U266B1 cells; 72 h, 1000 nM): 0.88
G0/G1, percentage of the cell population (U266B1 cells; 72 h, 10,000 nM): 2.00
G2/M, percentage of the cell population (U266B1 cells; 72 h, 10,000 nM): 64.31
S, percentage of the cell population (U266B1 cells; 72 h, 10,000 nM): 0.94
Sub G0, percentage of the cell population (U266B1 cells; 72 h, 10,000 nM): 28.88
G0/G1, percentage of the cell population (Raji Cells; 72 h, 0.1 nM): 56.54
G2/M, percentage of the cell population (Raji Cells; 72 h, 0.1 nM): 33.63
S, percentage of the cell population (Raji Cells; 72 h, 0.1 nM): 8.38
Sub G0, percentage of the cell population (Raji Cells; 72 h, 0.1 nM): 1.32
G0/G1, percentage of the cell population (Raji Cells; 72 h, 1 nM): 56.93
G2/M, percentage of the cell population (Raji Cells; 72 h, 1 nM): 34.13
S, percentage of the cell population (Raji Cells; 72 h, 1 nM): 5.51
Sub G0, percentage of the cell population (Raji Cells; 72 h, 1 nM): 1.89
G0/G1, percentage of the cell population (Raji Cells; 72 h, 10 nM): 55.96
G2/M, percentage of the cell population (Raji Cells; 72 h, 10 nM): 34.81
S, percentage of the cell population (Raji Cells; 72 h, 10 nM): 5.80
Sub G0, percentage of the cell population (Raji Cells; 72 h, 10 nM): 1.06
G0/G1, percentage of the cell population (Raji Cells; 72 h, 100 nM): 52.81
G2/M, percentage of the cell population (Raji Cells; 72 h, 100 nM): 37.80
S, percentage of the cell population (Raji Cells; 72 h, 100 nM): 6.72
Sub G0, percentage of the cell population (Raji Cells; 72 h, 100 nM): 1.04
G0/G1, percentage of the cell population (Raji Cells; 72 h, 1000 nM): 52.04
G2/M, percentage of the cell population (Raji Cells; 72 h, 1000 nM): 41.21
S, percentage of the cell population (Raji Cells; 72 h, 1000 nM): 3.92
Sub G0, percentage of the cell population (Raji Cells; 72 h, 1000 nM): 1.29
G0/G1, percentage of the cell population (Raji Cells; 72 h, 10,000 nM): 10.12
G2/M, percentage of the cell population (Raji Cells; 72 h, 10,000 nM): 58.09
S, percentage of the cell population (Raji Cells; 72 h, 10,000 nM): 23.17
Sub G0, percentage of the cell population (Raji Cells; 72 h, 10,000 nM): 4.90
